In PMC10352165, “Miniaturized method for the quantification of persistent organic pollutants and their metabolites in HepG2 cells: assessment of their biotransformation” (Analytical and Bioanalytical Chemistry, 2023):
Values after ≈ are worked out from the molar mass of the structure shown. Like-named read-outs stand apart in the source and are kept apart here.

Assays:
[1] = test system: HepG2 cells; assay: Biotransformation experiment in HepG2 (concentration in cells and exposure medium); details: for Concentration in medium, t = 0 h: contaminated medium at time 0, 20 mg·L^−1 BDE-47 nominal; for Concentration in medium, no cells: contaminated medium without cells, 20 mg·L^−1 BDE-47, 48 h; for Biotransformation ratio between metabolites and PHE, cells / Biotransformation ratio between metabolites and PHE, medium: HepG2, 15 mg·L^−1 PHE; for Biotransformation ratio between metabolites and BDE-47, cells / Biotransformation ratio between metabolites and BDE-47, medium: HepG2, 20 mg·L^−1 BDE-47, 48 h
[2] = test system: HepG2 cells; parameters: method as in PMID 31426631; details: 10% FBS in medium, evaporation losses considered, glass vials; cited from earlier work
[3] = test system: HepG2 cells; assay: MTT cell viability assay; type: cell-based
Experimental: (§1) Cell viability was determined by MTT assay. First, 10,000 cells/well were cultured in 96-well plates for 24 h at 37 °C and 5% CO2. After that time, the culture medium was replaced with a culture medium containing different concentrations (0–70 mg·L^−1) of PHE and BDE-47 for 48 h of exposure under the same incubated conditions. After that, 20 μL MTT solution (5 mg·mL^−1 diluted in PBS) was added and incubated for the following 4 h. Viable cellular metabolic reduction of MTT produced formazan crystals, which were dissolved in 100 μL sterile DMSO and quantified with absorbance measurement at 595 nm in a Multiskan Sky High ([…] Thermo Fisher). The cell viability was estimated by using Eq. (1). 1 %Viability=Aexp-Ablank/Acontrol-Ablank∙100 where Acontrol, Aexp, and Ablank are the mean absorbance value (6 replicates) of the control group (cells without pollutant), experimental group, and blank group (only cell culture medium), respectively. Five independent assays were carried out with the same conditions. The results have been subsequently used for the design of the biotransformation experiment.
(§2) Cell viability of each concentration was estimated by using Eq. (1) according to the absorbance values obtained in the MTT assay. The dose–response values were fitted by Origin Pro 2021 with a polynomial equation (shown in Fig. 3) from which the LC value was estimated. LC50 (50% viability) and LC30 (70% viability) were estimated by the polynomial fitting of the mean cell viability data obtained from three independent experiments. Cell viability in HepG2 decreased by 30% at 22 mg·L^−1 PHE and 38 mg·L^−1 BDE-47 and up to 50% at 38 mg·L^−1 PHE and 46 mg·L^−1 BDE-47. […] The calculated LC30 values have been subsequently used for the design of the biotransformation experiments.

[4] = MTT cell viability assay; type: cell-based; details: human
Experimental: as §1, §2

[5] = test system: HepG2 cells; assay: Plastic and glass plate exposure test (loss and cell uptake of compound); type: in vitro ADME
Experimental: Exposure of HepG2 cells (3 replicates) was performed by initially seeding approximately 2·10^6 cells in glass P100 plates and being incubated for 24 h at 37 °C (5% CO2) with 10 mL of DMEM supplemented with 10% FBS. […] The nominal exposure concentration was estimated by the previous MTT viability study, in which, more than 70% of the cells were alive at the end of the test (lethal concentration 30, LC30) to ensure good metabolizing capacity. Part of the contaminated medium was stored to determine the concentration at time 0 of exposure (“t = 0 h”). In addition, to consider possible analyte loss, a plate of control cells without pollutant (“blank”) and a plate with contaminated medium without cells (“no cells”) were incubated under the same conditions. […] Since the determination of PHE is carried out by LC-FL and its metabolites by GC–MS, the cell pellet was divided in half for each analysis. For this purpose, the adherent cells were lifted in suspension by trypsinization, and the total volume of the homogenous cell suspension was divided in half. Then, the resulting cell pellet from each fraction was collected by centrifuging at 1500 rpm for 5 min and removing the medium. However, for the determination of BDE-47 and its metabolites, the complete pellet obtained is analyzed because a simultaneous extraction is performed for both analyses. The obtained pellet was dried under a gentle stream of nitrogen, weighed on a precision analytical balance (± 0.00001 g), and stored at − 4 °C until analysis. Three independent assays were carried out with the same conditions, each with 3 replicates (plates) of the same concentration.
A major problem in in vitro cell assays is the loss of compound during the exposure process to estimate the effective concentration available to the cell and to correctly assess the toxicity and metabolization kinetics of POPs, as most of them are hydrophobic and semi-volatile. Firstly, when concentration was determined in the exposure and no cells medium samples at the end of the test (48 h) using plastic Petri dishes, a loss of 89% and 84% compared to the t = 0 h sample was found in the cells and no cells sample respectively (Table 1). This loss, similar to that found in previous studies, is mainly explained by absorption into polystyrene, the main component of in vitro culture plates or evaporation processes because these compounds have a Henry law constant (KH) between 1 and 10 Pa·m^3·mol^−1 [11] (7.90 Pa·m^3·mol^−1 for PHE at 35 °C [13] and 3.78 Pa·m^3·mol^−1 for BDE-47 at 40 °C [40]). The remaining concentration in the medium that had not been lost by evaporation or absorbed into the cells was retained in the protein serum. […] A fraction dissolved in the medium accessible to the cells of 3.5% for anthracene (log Kow 4.5) was obtained introducing the conditions of this work into the chemical partitioning model developed by Fischer et al.. […] Therefore, it should be considered to avoid the use of plastic in tests that requires P100 plates with a very high surface area/volume ratio of the medium when studying neutral chemicals with a log Kow > 3, as is the case of PHE (log Kow 4.46 [39]) and BDE-47 (log Kow 6.81 [26]).
Using glass plates, a loss of 47% and 26% for cells and no cells samples, respectively, was found at the end of the assay (48 h) (Table 1), and the concentration absorbed by the cells increased from 4 ± 1 to 18 ± 3%. For BDE-47, a loss of only 14% because of volatilization and an absorbed concentration of 24 ± 2% resulted using a glass plate, as BDE-47 is less volatile and more hydrophobic than PHE, favoring cell uptake. Birch et al. calculated a cell-free fraction of 13% for PHE in HepG2 cells with 10% of FBS in the medium considering the evaporation losses using glass vials. […]

[6] = cited from earlier work
[7] = parameters: method as in PMID 18318592; details: cited from earlier work
[8] = test system: HepG2; details: cited from earlier work; for CC50: read-out: LC50 (the source's name)
[9] = test system: HepG2 cells; details: 15 mg·L^−1
[10] = cited from earlier work; remark: listed apart in the source
[11] = HepG2 exposed to 20 mg·L^−1 BDE-47, 48 h, metabolites
[12] = HepG2 exposed to 15 mg·L^−1 PHE, 48 h, metabolites
[13] = HepG2 exposed to 20 mg·L^−1 BDE-47, 48 h, parent compound

Brc1ccc(Oc2ccc(Br)cc2Br)cc1 [BDE-28]
Concentration in cells, samples [1, 11]: 18 ± 5 ng/g
Concentration in medium, samples [1, 11]: 577 ± 92 µg/L
Concentration in medium, t = 0 h ([1]; metabolites): 0.662 ± 0.018 µg/mL
Concentration in medium, no cells ([1]; metabolites): 0.651 ± 0.036 µg/mL

Oc1ccc2ccc3ccccc3c2c1 [3-OH-PHE]
Biotransformation ratio between metabolites and PHE, cells ([1]; 48 h): 0.04
Biotransformation ratio between metabolites and PHE, medium ([1]; 48 h): 0.13
Concentration in cells, samples (n = 3) [1, 12]: 195 ± 33 ng/g
Concentration in medium, samples [1, 12]: 4.0 ± 0.7 µg/L

Oc1cc(Oc2ccc(Br)cc2Br)c(Br)cc1Br [5-OH-BDE-47]
Biotransformation ratio between metabolites and BDE-47, cells [1]: 0.01
Biotransformation ratio between metabolites and BDE-47, medium [1]: 0.06
Concentration in cells, samples [1, 11]: 0.27 ± 0.08 ng/g
Concentration in medium, samples [1, 11]: 6.2 ± 0.5 µg/L

c1ccc2c(c1)ccc1ccccc12 [PHE, phenanthrene]
cell-free fraction [2]: 13%
LC30 (70% viability; cell viability decreased by 30%) ([3]; human, 48 h): 22 mg/L (≈ 123 µM)
CC50 at 48 h [4]: 38 µg/mL (≈ 213 µM)
Conc. PHE Glass plate exposure ([5]; 0 h): 4.37 mg/L
Conc. PHE Plastic plate exposure ([5]; 0 h): 5.57 mg/L
Conc. PHE Glass plate exposure ([5]; 24 h): 3.69 mg/L
Conc. PHE Glass plate exposure ([5]; 48 h): 3.16 mg/L
Conc. PHE Plastic plate exposure ([5]; 48 h): 0.88 mg/L
loss at the end of the assay ([5]; 48 h): 26%
loss compared to the t = 0 h sample ([5]; 48 h): 84%
concentration absorbed by the cells ([5]; human, 48 h): 18 ± 3%
loss at the end of the assay ([5]; human, 48 h): 47%
loss compared to the t = 0 h sample ([5]; human, 48 h): 89%
taken up by the cells ([5]; human, 48 h): 4 ± 1%
log Kow [6]: 4.46
absorption when glass is used ([7]; glass): 2%
initial concentration absorbed on polystyrene ([7]; polystyrene): 94%
LC50 ([8]; HepG2 at 48 h of PHE exposure): 20.3 mg/L (≈ 114 µM)
CC50 ([8]; HepG2 at 48 h of PHE exposure): 114 µM
Concentration in medium, t = 0 h ([9]; 0 h): 12 ± 1 mg/L
Concentration in medium, no cells ([9]; 48 h): 8 ± 2 mg/L
Concentration in cells, samples (n = 3) ([9]; human, 48 h): 521 ± 144 µg/g
Concentration in medium, samples ([9]; human, 48 h): 5.7 ± 0.7 mg/L
Henry law constant (KH) ([10]; at 35 °C): 7.90 Pa·m^3·mol^−1

Brc1ccc(Oc2ccc(Br)cc2Br)c(Br)c1 [BDE-47, 2,2′,4,4′-tetrabromodiphenyl ether]
LC30 (70% viability; cell viability decreased by 30%) ([3]; HepG2, 48 h of exposure, MTT, polynomial fitting): 38 mg/L (≈ 78.2 µM)
CC50 at 48 h ([4]; HepG2, 48 h of exposure, MTT, polynomial fitting, read-out: LC50 (50% viability)): 46 µg/mL (≈ 94.7 µM)
Concentration in cells, samples [1, 13]: 737000 ± 120000 ng/g
Concentration in medium, samples [1, 13]: 13000 ± 2000 µg/L
Concentration in medium, t = 0 h [1]: 16 ± 1 µg/mL
Concentration in medium, no cells [1]: 14 ± 3 µg/mL
loss because of volatilization ([5]; glass plate): 14%
concentration absorbed by the cells ([5]; glass plates, 48 h): 24 ± 2%
log Kow [6]: 6.81
LC50 ([8]; HepG2, BDE-47): 48.6 mg/L (≈ 100 µM)
CC50 ([8]; HepG2, BDE-47): 100 µM
Henry law constant (KH) ([10]; at 40 °C): 3.78 Pa·m^3·mol^−1

COc1cc(Oc2ccc(Br)cc2Br)c(Br)cc1Br [5-MeO-BDE-47]
Biotransformation ratio between metabolites and BDE-47, cells [1]: 0.03
Biotransformation ratio between metabolites and BDE-47, medium [1]: 0.01
Concentration in cells, samples [1, 11]: 0.12 ± 0.02 ng/g
Concentration in medium, samples [1, 11]: 1.2 ± 0.9 µg/L

Oc1ccc2c(ccc3ccccc32)c1 [2-OH-PHE]
Biotransformation ratio between metabolites and PHE, cells ([1]; 48 h): 0.06
Biotransformation ratio between metabolites and PHE, medium ([1]; 48 h): 0.15
Concentration in cells, samples (n = 3) [1, 12]: 284 ± 92 ng/g
Concentration in medium, samples [1, 12]: 5.2 ± 0.9 µg/L

Oc1cc(Br)ccc1Oc1ccc(Br)cc1Br [2’-OH-BDE-28]
Concentration in cells, samples [1, 11]: 0.11 ± 0.09 ng/g
Concentration in medium, samples [1, 11]: 3.2 ± 0.2 µg/L

Oc1cccc2ccc3ccccc3c12 [4-OH-PHE]
Biotransformation ratio between metabolites and PHE, cells ([1]; 48 h): 0.05
Biotransformation ratio between metabolites and PHE, medium ([1]; 48 h): 0.16
Concentration in cells, samples (n = 3) [1, 12]: 260 ± 85 ng/g
Concentration in medium, samples [1, 12]: 5 ± 1 µg/L

Oc1cccc2c1ccc1ccccc12 [1-OH-PHE]
Biotransformation ratio between metabolites and PHE, cells ([1]; 48 h): 0.01
Biotransformation ratio between metabolites and PHE, medium ([1]; 48 h): 0.22
Concentration in cells, samples (n = 3) [1, 12]: 72 ± 27 ng/g
Concentration in medium, samples [1, 12]: 7.7 ± 0.9 µg/L

c1ccc2cc3ccccc3cc2c1 [anthracene, reference compound]
log Kow ([6]; value used with the partitioning model): 4.5

COc1c(Br)ccc(Oc2ccc(Br)cc2Br)c1Br [3-MeO-BDE-47]
metabolite detection after exposure (in words) ([1]; HepG2 exposed to 20 mg·L^−1 BDE-47, 48 h): No quantifiable amounts

Oc1c(Br)ccc(Oc2ccc(Br)cc2Br)c1Br [3-OH-BDE-47]
Biotransformation ratio between metabolites and BDE-47, cells [1]: 0.01
Biotransformation ratio between metabolites and BDE-47, medium [1]: 0.04
Concentration in cells, samples [1, 11]: 0.21 ± 0.10 ng/g
Concentration in medium, samples [1, 11]: 4.3 ± 0.2 µg/L
